Measurements: patent US6649763B1, “Optically active quinoline carboxylic acid derivatives with 7-pyrrolidine substituents causing optical activity and a process for the preparation thereof” (Dong Wha Pharm. Ind. Co., Ltd., priority 1999, dated 2003)
≈ marks a conversion by molar mass, not a printed value.

Experiments:
[1] = test system: Enterobacter cloacae P99; experiment: Antibacterial activity in vitro (MIC, agar dilution); type: cell-based; details: standard strain Enterobacter cloacae P99, read-out: minimum inhibitory concentration (MIC)
Excerpt: Corresponding enantiomers and racemates of the compounds of interest were also used as comparative ones. Bacteria were inoculated at an amount of about 10^7 cfu/ml onto each agar. […] Hoechst standard strains were used as the test bacteria.

[2] = test system: Staphylococcus aureus and Staphylococcus epidermis, both resistant to quinolone antibacterial agents; experiment: Antibacterial activity in vitro, potency comparison; type: cell-based; details: for fold more potent antibacterial activity than its enantiomer / fold more potent antibacterial activity than its racemate: against resistant staphylcoccus aureus and staphylococcus epidermis (Table 2); for times as potent in antibacterial activity as ciprofloxacin / times as potent in antibacterial activity as sparfloxacin: against resistant Staphylococcus aureus and Staphylococcus epidermis
Procedure: (§1) The optically active quinoline carboxylic acid derivatives of the present invention were tested as to whether they could be useful as antibacterial compounds. In this regard, the compounds were measured for minimum inhibitory concentration (MIC: unit μg/ml) according to an agar dilution process (Hoechst 345) in which Muller-Hinton agars were diluted two fold. For comparison, ciprofloxacin and sparfloxacin were used as controls. Corresponding enantiomers and racemates of the compounds of interest were also used as comparative ones. Bacteria were inoculated at an amount of about 10^7 cfu/ml onto each agar. 18 hours after the inoculation at 37° C., the growth of the bacteria was observed. As to methicillin-resistant strains, their growth was observed 48 hours after the inoculation at […]. Hoechst standard strains were used as the test bacteria.

[3] = test system: Staphylococcus epidermidis 329; experiment: Antibacterial activity in vitro (MIC, agar dilution); type: cell-based; details: Staphylococcus epidermidis, 329, resistant strain Staphylococcus epidermidis 329, read-out: minimum inhibitory concentration (MIC)
Procedure: as §1

[4] = test system: Streptococus pyogenes 77A; experiment: as above; type: cell-based; details: standard strain Streptococus pyogenes 77A, read-out: minimum inhibitory concentration (MIC)
Procedure: as §1

[5] = test system: Staphylococcus aureus 690E; experiment: as above; type: cell-based; details: resistant strain Staphylococcus aureus 690E, read-out: minimum inhibitory concentration (MIC)
Procedure: as §1

[6] = test system: Staphylococcus aureus 692E; experiment: as above; type: cell-based; details: resistant strain Staphylococcus aureus 692E, read-out: minimum inhibitory concentration (MIC)
Procedure: as §1

[7] = test system: Pseudomonas aeruginosa 1771M; experiment: as above; type: cell-based; details: read-out: minimum inhibitory concentration (MIC)
Procedure: as §1

[8] = test system: Staphylococcus epidermidis 319; experiment: as above; type: cell-based; details: Staphylococcus epidermidis, 319, resistant strain Staphylococcus epidermidis 319, read-out: minimum inhibitory concentration (MIC)
Procedure: as §1

[9] = test system: Staphylococcus aureus 241; experiment: as above; type: cell-based; details: resistant strain Staphylococcus aureus 241, read-out: minimum inhibitory concentration (MIC)
Procedure: as §1

[10] = test system: Escherichia coli DC 2; experiment: as above; type: cell-based; details: DC2, standard strain Escherichia coli DC 2, read-out: minimum inhibitory concentration (MIC)
Procedure: as §1

[11] = test system: Staphylococcus aureus 293; experiment: as above; type: cell-based; details: resistant strain Staphylococcus aureus 293, read-out: minimum inhibitory concentration (MIC)
Procedure: as §1

[12] = test system: Streptococus faecium MD 8b; experiment: as above; type: cell-based; details: standard strain Streptococus faecium MD 8b, read-out: minimum inhibitory concentration (MIC)
Procedure: as §1

[13] = test system: Staphylococcus aureus 285; experiment: as above; type: cell-based; details: standard strain Staphylococcus aureus 285, read-out: minimum inhibitory concentration (MIC)
Procedure: as §1

[14] = test system: Staphylococcus aureus 303; experiment: as above; type: cell-based; details: resistant strain Staphylococcus aureus 303, read-out: minimum inhibitory concentration (MIC)
Procedure: as §1

[15] = test system: Staphylococcus aureus SG511; experiment: as above; type: cell-based; details: standard strain Staphylococcus aureus SG511, read-out: minimum inhibitory concentration (MIC)
Procedure: as §1

[16] = test system: Staphylococcus aureus 503; experiment: as above; type: cell-based; details: standard strain Staphylococcus aureus 503, read-out: minimum inhibitory concentration (MIC)
Procedure: as §1

[17] = test system: Staphylococcus aureus 208E; experiment: as above; type: cell-based; details: resistant strain Staphylococcus aureus 208E, read-out: minimum inhibitory concentration (MIC)
Procedure: as §1

[18] = test system: Escherichia coli DC 0; experiment: as above; type: cell-based; details: DC0, standard strain Escherichia coli DC 0, read-out: minimum inhibitory concentration (MIC)
Procedure: as §1

[19] = test system: Streptococus pyogenes 308A; experiment: as above; type: cell-based; details: standard strain Streptococus pyogenes 308A, read-out: minimum inhibitory concentration (MIC)
Procedure: as §1

[20] = test system: Staphylococcus aureus 256E; experiment: as above; type: cell-based; details: resistant strain Staphylococcus aureus 256E, read-out: minimum inhibitory concentration (MIC)
Procedure: as §1

[21] = test system: Staphylococcus aureus 693E; experiment: as above; type: cell-based; details: resistant strain Staphylococcus aureus 693E, read-out: minimum inhibitory concentration (MIC)
Procedure: as §1

[22] = test system: Staphylococcus aureus 88E; experiment: as above; type: cell-based; details: resistant strain Staphylococcus aureus 88E, read-out: minimum inhibitory concentration (MIC)
Procedure: as §1

[23] = test system: Staphylococcus aureus 121E; experiment: as above; type: cell-based; details: resistant strain Staphylococcus aureus 121E, read-out: minimum inhibitory concentration (MIC)
Procedure: as §1

[24] = test system: Staphylococcus aureus 179; experiment: as above; type: cell-based; details: resistant strain Staphylococcus aureus 179, read-out: minimum inhibitory concentration (MIC)
Procedure: as §1

[25] = in vivo; details: for Cmax / half-life: SD, rat, in vivo, po, 40 mg/kg
Procedure: After being starved for 16 hours, SD rats were orally administered at a dose of 40 mg/5 ml/kg with the compounds of interest and at a dose of 50 mg/5 ml/kg with the control. Immediately after being drawn at predetermined times from the eyeballs, blood was separated into plasma and other ingredients and quantitatively analyzed for pharmacokinetic parameters by use of high performance liquid chromatograph (HPLC).

[26] = test system: Escherichia coli; experiment: Antibacterial activity in vitro, potency comparison; type: cell-based; details: against Escherichia coli, a representative Gram-negative strain
Procedure: as §1

[27] = test system: Gram-positive bacteria; experiment: as above; type: cell-based; details: against Gram-positive bacteria
Procedure: as §1

[28] = Phototoxicity test; type: in vivo; details: CD-1 female mice, oral 50 mg/kg; for edema and erythema observed after UV exposure / increase in ear thickness compared with before the UV exposure: after 48 hours of the UV exposure
Procedure: It is known that the presence of a halogen atom at the 8-position of the quinolone nuclei causes phototoxicity.
After 16 hours of starvation, CD-1 female mice were orally administered with a dose of 50 mg/kg of the compounds and allowed to be exposed for 4.5 hours to a UVA light source. The mice were located 15 cm away from the light source. Whether the mice were damaged in their ears was adopted as a main factor for the phototoxicity and determined after 24 hour and 48 hour UV exposure. The edema which the mice suffered were examined by measuring the thickness changes of their ears with the aid of electronic calipers and calculating average values. Also, an observation was made as to whether the mice suffered from erythema.

Compound	MIC [4] [µg/mL]	MIC [5] [µg/mL]	MIC [6] [µg/mL]	MIC [7] [µg/mL]	MIC [9] [µg/mL]	MIC [10] [µg/mL]	MIC [11] [µg/mL]	MIC [12] [µg/mL]	MIC [13] [ng/mL]	MIC [14] [µg/mL]	MIC [15] [ng/mL]	MIC [16] [ng/mL]	MIC [17] [µg/mL]	MIC [18] [ng/mL]	MIC [19] [µg/mL]	MIC [20] [µg/mL]	MIC [21] [µg/mL]	MIC [22] [µg/mL]	MIC [23] [µg/mL]	MIC [24] [µg/mL]	also measured
CO/N=C1\CN(c2cc3c(cc2F)c(=O)c(C(=O)O)cn3C2CC2)CC1(C)CN.Cl (single isomer, unassigned; (-)) [Example 19, (−)-7-(4-Aminomethyl-4-methyl-3-(Z)-methyloxyiminopyrrolidin-1-yl)-1-cyclopropyl-6-fluoro-4-oxo-1,4-dihydro-3-quinolinecarboxylic Acid Hydrochloride]	0.013	0.004	0.004	0.195	0.195	0.195	0.195	0.049	7	0.195	4	7	0.007	7	0.049	0.007	0.007	0.007	0.007	0.195	MIC [1]: 0.025 µg/mL; fold more potent antibacterial activity than its enantiomer [2]: 12-32 fold; fold more potent antibacterial activity than its racemate [2]: Two-fold higher potency; MIC [3]: 0.391 µg/mL; MIC [8]: 0.391 µg/mL
CO/N=C1\CN(c2nc3c(cc2F)c(=O)c(C(=O)O)cn3C2CC2)CC1(C)CN.Cl (single isomer, unassigned; (-)) [Example 9, (−)-7-(4-Aminomethyl-4-methyl-3-(Z)-methyloxyiminopyrrolidin-1-yl)-1-cyclopropyl-6-fluoro-4-oxo-1,4-dihydro[1,8]naphthyridine-3-carboxylic Acid Hydrochloride]	0.013	< 0.002	< 0.002	0.391	0.098	0.195	0.098	0.049	7	0.098	4	4	< 0.002	4	0.025	< 0.002	< 0.002	< 0.002	< 0.002	0.098	Cmax [25]: 9060 ± 2040 ng/mL; half-life [25]: 270 min; MIC [1]: 0.025 µg/mL; times as potent in antibacterial activity as ciprofloxacin [2]: 128-390 times; times as potent in antibacterial activity as sparfloxacin [2]: 24-64 times; fold more potent antibacterial activity than its enantiomer [2]: 8-32 fold; fold more potent antibacterial activity than its racemate [2]: 4 fold; fold more potent antibacterial effect than ciprofloxacin [26]: almost the same antibacterial potency; fold more potent antibacterial effect than sparfloxacin [26]: almost the same antibacterial potency; fold higher antibacterial activity than ciprofloxacin [27]: 4-112 fold; fold higher antibacterial activity than sparfloxacin [27]: 4-30 fold
CO/N=C1\CN(c2c(F)c(N)c3c(=O)c(C(=O)O)cn(C4CC4)c3c2F)CC1(C)CN.Cl (single isomer, unassigned; (-)) [Example 14, (−)-5-Amino-7-(4-aminomethyl-4-methyl-3-(Z)-methyloxyiminopyrrolidin-1-yl)-1-cyclopropyl-6,8-difluoro-4-oxo-1,4-dihydro-3-quinolinecarboxylic Acid Hydrochloride]	< 0.002	< 0.002	< 0.002	0.195	0.013	< 0.002	0.013	0.013	< 2	0.013	< 2	< 2	< 0.002	4	0.004	< 0.002	< 0.002	< 0.002	< 0.002	0.013	Thickness of mice's ears after UV exposure, After 24 hr ([28]; UVA light source): 21.6 ± 0.52; Thickness of mice's ears after UV exposure, After 48 hr ([28]; UVA light source): 21.6 ± 0.52; edema and erythema observed after UV exposure [28]: no erythema was observed; increase in ear thickness compared with before the UV exposure [28]: 16.8%; Thickness of mice's ears, Before UV exposure ([28]; baseline before UVA): 18.5 ± 0.76; Cmax [25]: 6670 ± 3330 ng/mL; half-life [25]: 416 min; MIC [1]: < 0.002 µg/mL; times as potent in antibacterial activity as ciprofloxacin [2]: 129-962 times; times as potent in antibacterial activity as sparfloxacin [2]: 24-481 times; fold more potent antibacterial activity than its enantiomer [2]: 2-63 fold; fold more potent antibacterial activity than its racemate [2]: up to four fold more potent; fold more potent antibacterial effect than ciprofloxacin [26]: 49 fold; fold more potent antibacterial effect than sparfloxacin [26]: 12-49 fold; fold higher antibacterial activity than ciprofloxacin [27]: 30-781 fold; fold higher antibacterial activity than sparfloxacin [27]: 24-195 fold; MIC [3]: 0.025 µg/mL; MIC [8]: 0.025 µg/mL
O=C(O)c1cn(C2CC2)c2cc(N3CCNCC3)c(F)cc2c1=O [Ciprofloxacin, ciprofloxacin]	0.391 (≈ 1.18 µM)	0.391 (≈ 1.18 µM)	0.391 (≈ 1.18 µM)	0.098 (≈ 0.296 µM)	12.5 (≈ 37.7 µM)	0.098 (≈ 0.296 µM)	12.5 (≈ 37.7 µM)	0.391 (≈ 1.18 µM)	781 (≈ 2.36 µM)	12.5 (≈ 37.7 µM)	195 (≈ 0.589 µM)	391 (≈ 1.18 µM)	0.781 (≈ 2.36 µM)	195 (≈ 0.589 µM)	3.12 (≈ 9.43 µM)	0.781 (≈ 2.36 µM)	0.391 (≈ 1.18 µM)	0.781 (≈ 2.36 µM)	0.781 (≈ 2.36 µM)	12.5 (≈ 37.7 µM)	Area Under Curve ([25]; SD rats, oral, control at 50 mg/5 ml/kg): 12.72 µg·h/mL; MIC [3]: 50 µg/mL (≈ 151 µM); MIC [8]: 100 µg/mL (≈ 302 µM)
C[C@@H]1CN(c2c(F)c(N)c3c(=O)c(C(=O)O)cn(C4CC4)c3c2F)C[C@H](C)N1 [Sparfloxacin, sparfloxacin]	0.391 (≈ 0.996 µM)	0.049 (≈ 0.125 µM)	0.049 (≈ 0.125 µM)	0.098 (≈ 0.25 µM)	6.25 (≈ 15.9 µM)	0.025 (≈ 0.0637 µM)	6.25 (≈ 15.9 µM)	0.391 (≈ 0.996 µM)	9 (≈ 0.0229 µM)	3.12 (≈ 7.96 µM)	98 (≈ 0.25 µM)	49 (≈ 0.125 µM)	0.098 (≈ 0.25 µM)	195 (≈ 0.497 µM)	0.391 (≈ 0.996 µM)	0.098 (≈ 0.25 µM)	0.049 (≈ 0.125 µM)	0.098 (≈ 0.25 µM)	0.098 (≈ 0.25 µM)	6.25 (≈ 15.9 µM)	edema and erythema observed after UV exposure [28]: serious edema and erythema; increase in ear thickness compared with before the UV exposure [28]: 150%; MIC [1]: 0.007 µg/mL (≈ 0.0178 µM); MIC [3]: 12.5 µg/mL (≈ 31.9 µM); MIC [8]: 12.5 µg/mL (≈ 31.9 µM)
